Values after ≈ are worked out from the molar mass of the structure shown. Active and inactive are the calls of the source. No cut-off for these calls is given here.
Key:
[1] = biological target: T1, Tubulin beta (Homo sapiens) (UniProt P68371+Q9H4B7+Q13509+P04350+Q3ZCM7+P07437+Q13885+Q9BVA1+Q9BUF5+A6NNZ2); test: Induction of beta-tubulin degradation in human HeLa cells at 1 uM preincubated with MG132 followed by compound addition measured after 24 hrs by immunoblotting analysis; assay type: cell-based
Chloride [2] = test: Binding affinity to chloride anions in human HeLa cells assessed as increase in chloride influx at 1 uM measured after 30 to 60 mins by inverted fluorescence microscopy; assay type: cell-based; conditions: time 30-60 min
[3] = Oral bioavailability in male CD-1 mouse at 1 mg/kg measured for 0.083 to 48 hrs by HPLC/MS/MS analysis; assay type: ADME, organism-based; conditions: in vivo, time 0.083-48 hrs
Chloride [4] = test: Binding affinity to chloride anions assessed as chloride efflux in egg-yolk L-alpha-phosphatidylcholine liposome model harboring intravesicular LiCl/extravesicular NaNO3
HeLa [5] = test: Cytotoxicity against human HeLa cells assessed as decrease in ratio of green to red fluorescence at 0.1 to 1 uM incubated for 24 hrs by calcein-AM/7-AAD staining based analysis; assay type: functional, cell-based; conditions: dose 0.1-1 µM
HeLa [6] = test: Cytotoxicity against human HeLa cells assessed as decrease in cell viability at 0.01 to 10 uM pretreated with Z-VAD-FMK/Fer-1 followed by compound addition by MTT assay; assay type: functional, cell-based; conditions: dose 0.01-10 µM
HeLa [7] = test: Induction of mitochondrial membrane permeability in human HeLa cells assessed as red fluorescence at 1 uM incubated for 24 hrs by JC-1 staining based analysis (reference value: 98.5 %); assay type: functional
HeLa [8] = test: In vivo induction of ferroptosis in human HeLa cells xenografted in male Balb/C nude mouse assessed as increase in cleaved caspase-3 level administered intraperitoneally on every 2 days measured after 18 days by immunoblotting analysis; assay type: functional, organism-based; conditions: dose 10-20 mg/kg, route ip, time 18.0 day
Chloride [9] = test: Binding affinity to chloride anions assessed as chloride efflux in egg-yolk L-alpha-phosphatidylcholine liposome model measured per lipid in presence of intravesicular NaCl/extravesicular NaNO3 by chloride ion selective electrode technique
HeLa [10] = test: Induction of ferroptosis in human HeLa cells assessed as increase in PARP-1 cleavage at 0.1 to 1 uM incubated for 24 hrs by immunoblotting analysis; assay type: functional, cell-based; conditions: dose 0.1-1 µM
HeLa [11] = test: Effect on ferroptosis pathway in human HeLa cells at 10 uM incubated for 48 hrs by KEGG analysis; assay type: functional, cell-based
HeLa [12] = test: Induction of mitochondrial membrane permeability in human HeLa cells assessed as green fluorescence at 1 uM incubated for 24 hrs by JC-1 staining based analysis (reference value: 1.5 %); assay type: functional
HeLa [13] = test: Induction of mitochondrial membrane permeability in human HeLa cells assessed as red fluorescence at 0.5 uM incubated for 24 hrs by JC-1 staining based analysis (reference value: 98.5 %); assay type: functional
Chloride [14] = test: Binding affinity to chloride anions in human HeLa cells assessed as decrease in red fluorescence in cytoplasm at 5 uM incubated for 1.5 hrs by MR-(RR)2 staining based analysis; assay type: cell-based
HeLa [15] = test: In vivo induction of ferroptosis in human HeLa cells xenografted in male Balb/C nude mouse assessed as increase in cleaved PARP level administered intraperitoneally on every 2 days measured after 18 days by immunoblotting analysis; assay type: functional, organism-based; conditions: dose 10-20 mg/kg, route ip, time 18.0 day
HeLa [16] = test: Induction of cell cycle arrest in human HeLa cells assessed as accumulation of cells at S phase at 0.5 uM incubated for 24 hrs by PI staining based flow cytometry relative to control; assay type: functional
HeLa [17] = test: Induction of lipid peroxidation in human HeLa cells assessed as decrease in GSH level incubated for 12 hrs by absorbance based assay; assay type: functional, cell-based; conditions: dose 0.1-1 µM
[18] = Tmax in male CD-1 mouse at 1 mg/kg, iv measured for 0.083 to 48 hrs by HPLC/MS/MS analysis; assay type: ADME, organism-based; conditions: in vivo, time 0.083-48 hrs
[19] = MRT (0 to t) in male CD-1 mouse at 1 mg/kg, ip measured for 0.083 to 48 hrs by HPLC/MS/MS analysis; assay type: ADME, organism-based; conditions: in vivo, time 0.083-48 hrs
Chloride [20] = test: Binding affinity to chloride anions assessed as chloride efflux in egg-yolk L-alpha-phosphatidylcholine liposome model harboring intravesicular NaCl/extravesicular Na2SO4
[21] = AUC (0 to t) in male CD-1 mouse at 1 mg/kg, ip measured for 0.083 to 48 hrs by HPLC/MS/MS analysis; assay type: ADME, organism-based; conditions: in vivo, time 0.083-48 hrs
HeLa [22] = test: Induction of beta III-tubulin degradation in human HeLa cells incubated for 48 hrs by immunoblotting analysis; assay type: cell-based; conditions: dose 0.1-1 µM
[23] = Aqueous solubility of compound; assay type: physicochemical
[24] = Tmax in male CD-1 mouse at 1 mg/kg, ip measured for 0.083 to 48 hrs by HPLC/MS/MS analysis; assay type: ADME, organism-based; conditions: in vivo, time 0.083-48 hrs
HeLa [25] = test: Effect on p53 pathway in human HeLa cells at 10 uM incubated for 48 hrs by KEGG analysis; assay type: functional, cell-based
[26] = biological target: T1, Tubulin beta (Homo sapiens); test: Induction of beta-tubulin degradation in human HeLa cells incubated for 48 hrs by immunoblotting analysis; assay type: cell-based; conditions: dose 0.1-1 µM
HeLa [27] = test: Cytotoxicity against human HeLa cells assessed as decrease in cell viability at 0.01 to 10 uM pretreated with DFO followed by compound addition by MTT assay; assay type: functional, cell-based; conditions: dose 0.01-10 µM

Fc1cc(-c2nc3c(C(F)(F)F)cc(C(F)(F)F)cc3[nH]2)cc(-c2nc3c(C(F)(F)F)cc(C(F)(F)F)cc3[nH]2)c1
Activity [1]: inactive | Activity (Chloride [2]): Active | bioavailability [3]: 22% | Activity (Chloride [4]): Active | Activity (HeLa [5]): Active | Activity (HeLa [6]): Not active; Z-Vad-Fmk/Fer-1 Rescued Cells In Dose-Dependent Manner | Activity (HeLa [7]): 33.2% | Activity (HeLa [8]): Dose-dependent-effect | EC50 (Chloride [9]): 0.64 mol% | Activity (HeLa [10]): Active | Activity (HeLa [11]): Active | Activity (HeLa [12]): 66.8% | Activity (HeLa [13]): 55.1% | Activity (Chloride [14]): Active; The Result Reveals That Compound Can Alkalize Lysosomes | Activity (HeLa [15]): Dose-dependent-effect | Activity (HeLa [16]): 36% | Activity (HeLa [17]): Dose-dependent-effect | Tmax [18]: 4.8 min | MRT last [19]: 24.9 h | Activity (Chloride [20]): inactive | AUC(0-t) [21]: 3850 ng·h/mL | Activity (HeLa [22]): Dose-dependent-effect | solubility [23]: 200 µg/mL (≈ 333 µM) | Tmax [24]: 3.5 h | Activity (HeLa [25]): Active | Activity [26]: Dose-dependent-effect | Activity (HeLa [27]): inactive
